Laboratory results reported in US12662473B2, “Inhibitors for programmed cell necrosis and preparation method therefor and use thereof” (SHANGHAI INSTITUTE OF ORGANIC CHEMISTRY, CHINESE ACADEMY OF …, priority 2019, dated 2026).
Read-outs that look alike come from different tables or passages of the source.

Key:
[1] = test system: FADD−/− Jurkat cells; assay: TNF-induced programmed cell necrosis inhibition, Cell Titer-Glo viability; type: cell-based
From the text: (§1) The adopted biological assay protocol was: the programmed necroptosis effect of compounds on TNF-induced in FADD (Fas-Associated Death Domain) deficient Jurkat cells and L929 cells.
(§2) In order to verify the inhibitory effect of the compounds of the present invention on programmed cell necrosis at the cellular level, cell types closely related to the RIP1 pathway, namely FADD deficient Jurkat cells (human peripheral blood leukemia T cell line) and L929 cells, were selected. Two different stimulation methods were used: tumor necrosis factor (TNFα) used alone, or TNFα used in combination with mitochondria-derived cysteine aspartate activator (SMAC). Cells viability was calculated by detecting chemiluminescence values, and the biological activity of the compound for inhibiting programmed cell necrosis can be obtained.
(§3) Methods: FADD deficient Jurkat cells: FADD deficient Jurkat cells (human peripheral blood leukemia T cell line) were cultured in vitro. After growing to the logarithmic growth phase, the cells were collected, centrifuged at 1000 rpm for 5 min, the supernatant was discarded, and the cell concentration was adjusted to 2.5×10^5/mL. Cells were seeded into 384-well plates, 40 μl per well. 5 μL of Smac (50 nM) diluted in cell culture medium and 5 μL of each compound were added to the corresponding wells. After pretreatment at 37° C. for 1 h, 5 μL of TNFα (50 ng/mL) diluted in cell culture medium was added to each well of the stimulation group, and 5 μL of the culture medium was added to the control group. The plate was cultured in a cell incubator (37° C., 5% CO2) for 14 h, and 15 μl of Cell Titer-Glo solution was added to each well, then incubated for 30 min at room temperature, and intracellular ATP level was measured by detecting luminescence. The unstimulated DMSO control wells were taken as 100% cell viability. L929 cells: The L929 cells (mouse fibroblasts) were cultured in vitro, digested and diluted to 6.25×10^4/ml, and the cells were seeded into 384-well plates, 40 μl per well. The plate was placed in a cell incubator (37° C., 5% CO2) for 12 hours. 5 μL of Smac (500 nM) diluted in cell culture medium and 5 μL of each compound were added to the corresponding wells. After pretreatment at 37° C. for 1 h, 5 μL of TNFα (500 ng/mL) diluted in cell culture medium was added to each well of the stimulation group, and 5 μL of the culture medium was added to the control group. After the plate was cultured for 14 h in a cell incubator (37° C., 5% CO2), 15 μl of Cell Titer-Glo solution was added to each well. The plate was incubated at room temperature for 30 min, and intracellular ATP level was measured by detecting luminescence. The unstimulated DMSO control wells were taken as 100% cell viability. EC50 values of the compounds were calculated using Prism Graphpad statistical software.
FADD deficient Jurkat cells: FADD deficient Jurkat cells (human peripheral blood leukemia T cell line) were cultured in vitro. After growing to the logarithmic growth phase, the cells were collected, centrifuged at 1000 rpm for 5 min, the supernatant was discarded, and the cell concentration was adjusted to 2.5×10^5/mL. Cells were seeded into 384-well plates, 40 μl per well. 5 μL of Smac (50 nM) diluted in cell culture medium and 5 μL of each compound were added to the corresponding wells. After pretreatment at 37° C. for 1 h, 5 μL of TNFα (50 ng/mL) diluted in cell culture medium was added to each well of the stimulation group, and 5 μL of the culture medium was added to the control group. After the plate was cultured in a cell incubator (37° C., 5% CO2) for 14 h, 15 μl of Cell Titer-Glo solution was added to each well. The mixture was incubated for 30 min at room temperature, and intracellular ATP level was measured by detecting luminescence. The unstimulated DMSO control wells were taken as 100% cell viability.

[2] = test system: L929 cells; assay: as above; type: cell-based, mouse; conditions: read-out: EC50 inhibitory activity on programmed cell necrosis
From the text: as §1, §2, §3
L929 cells: The L929 cells (mouse fibroblasts) were cultured in vitro, digested and diluted to 6.25×10^4/ml, and the cells were seeded into 384-well plates, 40 μl per well. The plate was placed in a cell incubator (37° C., 5% CO2) for 12 hours. 5 μL of Smac (500 nM) diluted in cell culture medium and 5 μL of each compound were added to the corresponding wells. After pretreatment at 37° C. for 1 h, 5 μL of TNFα (500 ng/mL) diluted in cell culture medium was added to each well of the stimulation group, and 5 μL of the culture medium was added to the control group. After the plate was cultured for 14 h in a cell incubator (37° C., 5% CO2), and 15 μl of Cell Titer-Glo solution was added to each well, then incubated at room temperature for 30 min, and intracellular ATP level was measured by detecting luminescence. The unstimulated DMSO control wells were taken as 100% cell viability.

[3] = Homo sapiens, Jurkat, 14 h, TNFa + SM164, read-out: EC50 inhibitory activity on programmed cell necrosis
[4] = Homo sapiens, Jurkat, TNFa, read-out: EC50 inhibitory activity on programmed cell necrosis
[5] = Mus musculus, L929, 14 h, L929 cells (mouse), TNFa + SM164
[6] = Mus musculus, L929, L929 cells (mouse), TNFa

Compound	EC50 [1, 3]	EC50 [1, 4]	EC50 [2, 5]	EC50 [2, 6]	EC50 ([1]; FADD−/− Jurkat cells (human), TNFa + SM164, read-out: EC50 inhibitory activity on programmed cell necrosis)	EC50 ([1]; FADD−/− Jurkat cells (human), TNFa, read-out: EC50 inhibitory activity on programmed cell necrosis)	EC50 ([2]; L929 cells (mouse), TNFa + SM164)	EC50 ([2]; L929 cells (mouse), TNFa)
Cc1ccc([C@@H]2CCCN2C(=O)C(C)(C)Oc2ccc(Cl)cc2)cc1 (stereo in doubt) [QY-5-21]	696 nM	93 nM	208 nM	59.9 nM	–	–	–	–
CN1C(=O)NC(Cc2c[nH]c3c(Cl)cccc23)C1=O (centres unmarked) [Compound 7-Cl-O-Nec-1, reference compound]	–	–	–	–	337 nM	76 nM	924 nM	155 nM
Cc1noc([C@@H]2CCCN2C(=O)C(C)(C)Oc2ccccc2)n1 [QY-2-25]	> 10000 nM	6180 nM	> 10000 nM	2670 nM	–	–	–	–
Cc1noc([C@@H]2CCCN2C(=O)C(C)(C)Oc2ccc(F)cc2)n1 [QY-2-26]	> 10000 nM	417 nM	982 nM	182 nM	–	–	–	–
Cc1noc([C@@H]2CCCN2C(=O)C(C)(C)Oc2ccc(N(C)C)cc2)n1 [QY-2-27]	> 10000 nM	9380 nM	> 10000 nM	> 10000 nM	–	–	–	–
CC(C)(Oc1ccc(Cl)cc1)C(=O)N1CCC[C@H]1c1nnc(N)s1 [QY-2-34]	> 10000 nM	> 10000 nM	> 10000 nM	> 10000 nM	–	–	–	–
Cc1nc([C@@H]2CCCN2C(=O)C(C)(C)Oc2ccc(Cl)cc2)sc1C [QY-2-38]	> 10000 nM	1700 nM	> 10000 nM	1550 nM	–	–	–	–
CC(C)(Oc1ccc(Cl)cc1)C(=O)N1CCC[C@H]1c1nccs1 [QY-2-39]	> 10000 nM	1060 nM	8920 nM	1900 nM	–	–	–	–
Cc1csc([C@@H]2CCCN2C(=O)C(C)(C)Oc2ccc(Cl)cc2)n1 [QY-2-52]	2240 nM	464 nM	2370 nM	419 nM	–	–	–	–
Cc1cc([C@@H]2CCCN2C(=O)C(C)(C)Oc2ccc(Cl)cc2)on1 [QY-2-53]	1340 nM	199 nM	1170 nM	172 nM	–	–	–	–
COc1ccc(OC(C)(C)C(=O)N2CCC[C@H]2c2nc(C)no2)cc1 [QY-2-54]	> 10000 nM	> 10000 nM	> 10000 nM	6190 nM	–	–	–	–
Cc1noc([C@@H]2CCCN2C(=O)C(C)(C)Oc2ccc(C#N)cc2)n1 [QY-2-55]	2220 nM	140 nM	233 nM	25 nM	–	–	–	–
Cc1noc([C@@H]2CCCN2C(=O)C(C)(C)Oc2ccc(-c3ccccc3)cc2)n1 [QY-2-56]	> 10000 nM	> 10000 nM	> 10000 nM	2120 nM	–	–	–	–
Cc1noc([C@@H]2CCCN2C(=O)C(C)(C)Oc2ccc(I)cc2)n1 [QY-2-75]	5150 nM	608 nM	> 10000 nM	2450 nM	–	–	–	–
Cc1noc([C@@H]2CCCN2C(=O)C(C)(C)Oc2ccc(OC(F)(F)F)cc2)n1 [QY-2-76]	3960 nM	> 10000 nM	> 10000 nM	> 10000 nM	–	–	–	–
Cc1ccc(OC(C)(C)C(=O)N2CCC[C@H]2c2nc(C)no2)cc1 [QY-2-77]	> 10000 nM	7900 nM	> 10000 nM	4260 nM	–	–	–	–
Cc1noc([C@@H]2CCCN2C(=O)C(C)(C)Oc2ccc(Oc3ccccc3)cc2)n1 [QY-2-78]	> 10000 nM	127 nM	> 10000 nM	> 10000 nM	–	–	–	–
Cc1noc([C@@H]2CCCN2C(=O)C(C)(C)Oc2cccc(Cl)c2)n1 [QY-2-79]	8920 nM	2030 nM	1620 nM	212 nM	–	–	–	–
CC(C)(Oc1ccc(Cl)cc1)C(=O)N1CCC[C@H]1c1nc(C2CC2)no1 [QY-2-100]	> 10000 nM	2240 nM	> 10000 nM	2480 nM	–	–	–	–
CCCCc1noc([C@@H]2CCCN2C(=O)C(C)(C)Oc2ccc(Cl)cc2)n1 [QY-2-103]	> 10000 nM	> 10000 nM	> 10000 nM	> 10000 nM	–	–	–	–
CC(C)(Oc1ccc(Cl)cc1)C(=O)N1CCC[C@H]1c1nc(Cc2ccccc2)no1 [QY-2-104]	> 10000 nM	> 10000 nM	> 10000 nM	> 10000 nM	–	–	–	–
Cc1noc([C@@H]2CCCN2C(=O)COc2ccc(Cl)cc2)n1 [QY-3-4]	> 10000 nM	> 10000 nM	59100 nM	> 10000 nM	–	–	–	–
Cc1conc1[C@@H]1CCCN1C(=O)C(C)(C)Oc1ccc(Cl)cc1 [QY-3-11]	3270 nM	389 nM	1570 nM	404 nM	–	–	–	–
CC(C)c1noc([C@@H]2CCCN2C(=O)C(C)(C)Oc2ccc(Cl)cc2)n1 [QY-3-17]	> 10000 nM	3910 nM	52400 nM	5380 nM	–	–	–	–
Cc1noc([C@@H]2CCCN2C(=O)C(C)(C)Oc2ccc(Cl)c(F)c2)n1 [QY-3-26]	1280 nM	111 nM	1240 nM	196 nM	–	–	–	–
Cc1noc([C@@H]2CCCN2C(=O)C(C)(C)Oc2ccc(Cl)cc2F)n1 [QY-3-27, (S)-2-(4-Chloro-2-fluorophenoxy)-2-methyl-1-(2-(3-methyl-1,2,4-oxadiazol-5-yl)pyrrolidin-1-yl)propan-1-one]	849 nM	56 nM	792 nM	133 nM	–	–	–	–
